Source: patent US4346082A, “Method of employing therapeutic composition comprising ammonium or substituted ammonium compounds for treatment of alcoholism” (The Vinoxen Company, priority 1981, dated 1982)
Where two headings read alike, the source gives them in different places.

Key:
[1] = tested on: mice; experiment: Acute, subacute and chronic toxicity in mice, gastric catheter
[2] = tested on: rats; experiment: Acute, subacute and chronic toxicity in rats, gastric catheter
[3] = tested on: effects of alcohol; experiment: Efficacy in altering the effects of alcohol administered to mice; type: in vivo; conditions: for comparative effect on mice of ammonium thiosulfate and ammonium sulfate: series of tests in mice
Method: Tests of some of the compounds encompassed within the scope of this invention were carried out with mice to determine efficacy in altering the effects of alcohol administered to the test animals.

[4] = tested on: humans; experiment: Toxicity in humans, repeated administration of capsules; conditions: up to 20 capsules per day (1 gram/capsule) for 10 days
[5] = pH of 5 weight percent aqueous salt solution; type: physicochemical; conditions: 5 g salt per 100 g aqueous solution, 25° C
Method: For each salt, 5.000 grams of reagent grade material was weighed and added to 95.00 grams of water. […] The instrument was allowed to equilibrate for three minutes between each sample, and the electrodes were rinsed with carbonate-free deionized water. Manual temperature control was set at 25° C.

[6] = tested on: mice; conditions: mouse, in vivo
[7] = tested on: effects of alcohol; experiment: Efficacy in altering the effects of alcohol in humans; conditions: compared with ammonium sulfate
[8] = tested on: ethanol-induced neurological deficit; conditions: for Fall from rod in 10 sec. (individual mouse): 0.6 ml of 10% solution oral, 30 min before 0.5 ml 30% ethanol oral; for No. Protected/No. Treated: 0.6 ml/mouse of 10% solution oral, ethanol 0.5 ml/mouse; for effectiveness as inhibitors of ethanol-induced neurological deficit: at the dose used (0.6 ml/mouse of 10% solution)
Method: (§1) Neurological deficit was recorded if the animal was unable to remain on the rod for at least 10 seconds.
Each composition was prepared freshly as a 10% aqueous solution from the crystalline preparation. A dose of 0.6 ml/mouse was administered orally to 10 mice for each compound. […] A group of 10 untreated mice were used as controls.

[9] = tested on: rats; conditions: rat, in vivo
[10] = tested on: ethanol-induced neurological deficit
Method: as §1

[11] = tested on: humans; conditions: in vivo
[12] = tested on: ethanol-induced neurological deficit; conditions: for Fraction Protected / Percent (protected): 0.6 ml/mouse
Method: They were deprived of food, but not water, for a period of five hours preceding the test. […] Ten minutes later the animals were tested for neurological deficit or its absence in the usual manner as described in Example 1. A separate group of fasted by non-pretreated mice served as ethanol controls.

[13] = tested on: manifestations of the effects of alcohol; conditions: 1 or 2 capsules of 1 gram after 1 or 2 alcoholic drinks; in some cases
Text: Throughout the specification and claims reference to an alcoholic drink means reference to an aqueous mixture of ethanol containing about 15-25 grams of ethanol per drink.

[14] = tested on: effect of alcohol on a human brain; conditions: publication DOT HS-801 208 (1974); cited from earlier work
[15] = tested on: neurological deficit; conditions: i.p., fasted mice; 0.12-0.19 at 95% confidence limit
Method: Further, and in order to avoid physio-chemical problems that might, albeit remotely, arise if ethanol is administered orally, applicant also determined the intraperitoneal ED50 of ethanol in fasted mice.

[16] = tested on: neurological deficit
Method: Ten minutes later the animals were placed, individually, on a rotored, rotating at 6 rpm. […] Absence of neurological deficit was similarly recorded (+) if the animal had sufficient coordination and muscular power to remain on the rotating rod for 10 seconds or more.

[17] = ethanol 0.50 ml per mouse, ammonium thiosulfate pretreated
[18] = ethanol 0.63 ml per mouse, ammonium thiosulfate pretreated
[19] = ethanol 0.75 ml per mouse, ammonium thiosulfate pretreated
[20] = ethanol 0.87 ml per mouse, ammonium thiosulfate pretreated
[21] = ethanol 1.00 ml per mouse, ammonium thiosulfate pretreated
[22] = ethanol 0.05 ml per mouse, non-pretreated
[23] = ethanol 0.10 ml per mouse, non-pretreated
[24] = ethanol 0.15 ml per mouse, non-pretreated
[25] = ethanol 0.20 ml per mouse, non-pretreated
[26] = ethanol 0.30 ml per mouse, non-pretreated
[27] = ethanol 0.50 ml per mouse, non-pretreated

## CC(=O)O [Ammonium acetate, ammonium acetate]
[1]
  acute, subacute and chronic toxicity: low toxicity
[2]
  acute, subacute and chronic toxicity: low toxicity
[3]; mice
  efficacy in altering the effects of alcohol in mice: Good results
[4]
  clinical or analytic noxious effects: no clinical or analytic noxious effects
[5]
  pH of 5 Weight Percent Solution: 6.790

## N.N.O=S(O)(O)=S [Ammonium thiosulfate, ammonium thiosulfate]
[3]
  comparative effect on mice of ammonium thiosulfate and ammonium sulfate: approximately equally effective
[6]
  acute, subacute and chronic toxicity: low toxicity
[7]
  expected effect in altering the effects of alcohol ingestion in humans: substantially greater
[8]
  Fall from rod in 10 sec. (individual mouse): - and +
  No. Protected/No. Treated: 8/10
  effectiveness as inhibitors of ethanol-induced neurological deficit: highly effective
[8]; single test
  relative potency of ammonium thiosulfate and ammonium sulfate: essentially equipotent
[5]
  pH of 5 Weight Percent Solution: 5.966
[9]
  acute, subacute and chronic toxicity: low toxicity
[10]; 30% (v/v) ethanol oral, ammonium thiosulfate pretreated
  ED50 of 30% ethanol in pretreated mice: 0.76 ml/mouse
[10]; 30% (v/v) ethanol, 95% limits 0.65-0.90 ml
  oral ED50 of ethanol in ammonium thiosulfate pretreated animals: 0.76 mL
[10]; ammonium thiosulfate pretreated vs non-pretreated mice
  increase in ethanol required to induce neurological deficit following pretreatment: nearly five times
[10]; [17]
  Fraction Falling From Rod in 10 sec.: 1/10
  Percent Falling: 10%
[10]; ethanol 0.5 ml, 0.6 ml of 10% ammonium thiosulfate solution oral, 30 min before
  Fall from rod in 10 sec. (individual mouse): - and +
[10]; [18]
  Fraction Falling From Rod in 10 sec.: 2/10
  Percent Falling: 20%
[10]; ethanol 0.63 ml, 0.6 ml of 10% ammonium thiosulfate solution oral, 30 min before
  Fall from rod in 10 sec. (individual mouse): - and +
[10]; [19]
  Fraction Falling From Rod in 10 sec.: 4/10
  Percent Falling: 40%
[10]; ethanol 0.75 ml, 0.6 ml of 10% ammonium thiosulfate solution oral, 30 min before
  Fall from rod in 10 sec. (individual mouse): + and ° and -
[10]; [20]
  Fraction Falling From Rod in 10 sec.: 7/10
  Percent Falling: 70%
[10]; ethanol 0.87 ml, 0.6 ml of 10% ammonium thiosulfate solution oral, 30 min before
  Fall from rod in 10 sec. (individual mouse): + and -
[10]; [21]
  Fraction Falling From Rod in 10 sec.: 10/10
  Percent Falling: 100%
[10]; ethanol 1.00 ml, ammonium thiosulfate solution dose printed as 0.0 ml
  Fall from rod in 10 sec. (individual mouse): +
[11]
  clinical or analytic noxious effects: no clinical or analytic noxious effects
[12]; 0.6 ml/mouse oral as basic dose
  percent of pure ammonium thiosulfate required to protect 50% of the mice: 3.6 (2.63-4.93%)
[12]; 1.25% ammonium thiosulfate
  Fraction Protected: 0/10
  Percent (protected): 0%
[12]; 1.25% ammonium thiosulfate, 0.6 ml/mouse oral, 30% ethanol 0.5 ml/mouse
  Fall from rod in 10 sec. (individual mouse): +
[12]; 2.5% ammonium thiosulfate
  Fraction Protected: 3/10
  Percent (protected): 30%
[12]; 5.0% ammonium thiosulfate
  Fraction Protected: 7/10
  Percent (protected): 70%
[12]; 7.5% ammonium thiosulfate
  Fraction Protected: 8/10
  Percent (protected): 80%
[12]; 10.0% ammonium thiosulfate
  Fraction Protected: 8/10
  Percent (protected): 80%
[13]
  additional drinks consumed without typical manifestations of the effects of alcohol: up to 8 additional drinks

## N.NS(=O)(=O)O [Ammonium sulfamate, ammonium sulfamate]
[5]
  pH of 5 Weight Percent Solution: 5.335

## N[C@@H](Cc1ccc(O)c(O)c1)C(=O)O [L-dopa]
[14]
  amethystic effect: most effective amethystic agent

## ammonium sulfate
[3]
  comparative effect on mice of ammonium thiosulfate and ammonium sulfate: approximately equally effective
[4]
  clinical or analytic noxious effects: no clinical or analytic noxious effects
[8]
  Fall from rod in 10 sec. (individual mouse): - and +
  No. Protected/No. Treated: 7/10
  effectiveness as inhibitors of ethanol-induced neurological deficit: highly effective
[5]
  pH of 5 Weight Percent Solution: 5.263

## CCO [Ethanol, ethanol]
[15]
  intraperitoneal ED50 of 30% ethanol: 0.15 ml/mouse
[16]; 30% (v/v) ethanol oral, non-pretreated, 95% limit 0.13-0.22
  ED50 (95% Limit): 0.17 mL
[16]; 30% (v/v) ethanol, 95% fiducial limits 0.13 to 0.22 ml/mouse
  oral ED50 of 30% ethanol for neurological deficit, non-pretreated mice: 0.17 ml/mouse
[16]; ethanol 0.05 ml oral, non-pretreated
  Fall from rod in 10 sec. (individual mouse): -
[16]; [22]
  Fraction Falling From Rod in 10 sec.: 0/5
  Percent Falling: 0%
[16]; [23]
  Fraction Falling From Rod in 10 sec.: 2/10
  Percent Falling: 20%
[16]; [24]
  Fraction Falling From Rod in 10 sec.: 4/10
  Percent Falling: 40%
[16]; [25]
  Fraction Falling From Rod in 10 sec.: 7/10
  Percent Falling: 70%
[16]; [26]
  Fraction Falling From Rod in 10 sec.: 4/5
  Percent Falling: 80%
[16]; ethanol 0.5 ml oral, non-pretreated
  Fall from rod in 10 sec. (individual mouse): +
[16]; [27]
  Fraction Falling From Rod in 10 sec.: 10/10
  Percent Falling: 100%

## Cl.N [Ammonium chloride, ammonium chloride, reference compound]
[14]
  amethystic effect: does not appear to act as an amethystic agent
[5]
  pH of 5 Weight Percent Solution: 4.761
